Source: ChEMBL document CHEMBL3774317, “Design and synthesis of novel tamoxifen analogues that avoid CYP2D6 metabolism” (Eur J Med Chem, 2016)

Columns and labels:
Format in all cases: functional
[1] = system: EKVX; assay: Cytotoxicity against human EKVX cells assessed as cell growth at 50 nM after 48 hrs by SRB assay; conditions: read-out: Activity
[2] = Cytotoxicity against human SW620 cells assessed as cell growth at 50 nM after 48 hrs by SRB assay; conditions: SW-620, 48 h, read-out: Activity
[3] = Cytotoxicity against human SF295 cells assessed as cell growth at 50 nM after 48 hrs by SRB assay; conditions: SF-295, 48 h, read-out: Activity
[4] = system: M14; assay: Cytotoxicity against human M14 cells assessed as cell growth at 50 nM after 48 hrs by SRB assay; conditions: M14, 48 h, read-out: Activity
[5] = system: SK-MEL-5; assay: Cytotoxicity against human SK-MEL-5 cells assessed as cell growth at 50 nM after 48 hrs by SRB assay; conditions: SK-MEL-5, 48 h, read-out: Activity
[6] = system: ACHN; assay: Cytotoxicity against human ACHN cells assessed as cell growth at 50 nM after 48 hrs by SRB assay; conditions: read-out: Activity
[7] = Cytotoxicity against human SF539 cells assessed as cell growth at 50 uM after 48 hrs by SRB assay; conditions: SF-539, 48 h, read-out: Activity
[8] = Cytotoxicity against human RXF393 cells assessed as cell growth at 50 uM after 48 hrs by SRB assay; conditions: RXF 393, 48 h, read-out: Activity
[9] = Cytotoxicity against human Hs 578T cells assessed as cell growth at 50 uM after 48 hrs by SRB assay; conditions: read-out: Activity
[10] = system: KM12; assay: Cytotoxicity against human KM12 cells assessed as cell growth at 0.5 uM after 48 hrs by SRB assay; conditions: KM12, 48 h, read-out: Activity
[11] = system: Malme-3M; assay: Cytotoxicity against human MALME-3M cells assessed as cell growth at 0.5 uM after 48 hrs by SRB assay; conditions: read-out: Activity
[12] = Cytotoxicity against human SKOV3 cells assessed as cell growth at 0.5 uM after 48 hrs by SRB assay; conditions: SK-OV-3, 48 h, read-out: Activity
[13] = system: K562; assay: Cytotoxicity against human K562 cells assessed as cell growth at 5 nM after 48 hrs by SRB assay; conditions: K562, 48 h, read-out: Activity
[14] = Cytotoxicity against human MOLT4 cells assessed as cell growth at 5 nM after 48 hrs by SRB assay; conditions: MOLT-4, 48 h, read-out: Activity
[15] = Cytotoxicity against human UO31 cells assessed as cell growth at 5 nM after 48 hrs by SRB assay; conditions: UO-31, 48 h, read-out: Activity
[16] = Cytotoxicity against human DU145 cells assessed as cell growth at 5 nM after 48 hrs by SRB assay; conditions: DU-145, 48 h, read-out: Activity
[17] = system: MDA-MB-231; assay: Cytotoxicity against human MDA-MB-231 cells assessed as cell growth at 5 nM after 48 hrs by SRB assay; conditions: MDA-MB-231, 48 h, read-out: Activity
[18] = Cytotoxicity against human SW620 cells assessed as cell growth at 5 uM after 48 hrs by SRB assay; conditions: SW-620, 48 h, read-out: Activity
[19] = system: 786-0; assay: Cytotoxicity against human 786-0 cells assessed as cell growth at 5 uM after 48 hrs by SRB assay; conditions: 786-0, 48 h, read-out: Activity
[20] = system: NCI-H226; assay: Cytotoxicity against human NCI-H226 cells assessed as cell growth at 50 uM after 48 hrs by SRB assay; conditions: NCI-H226, 48 h, read-out: Activity
[21] = Cytotoxicity against human SF539 cells assessed as cell growth at 10^-7 M after 48 hrs by SRB assay; conditions: SF-539, 48 h, read-out: Activity
[22] = Cytotoxicity against human IGROV1 cells assessed as cell growth at 10^-7 M after 48 hrs by SRB assay; conditions: IGROV-1, 48 h, read-out: Activity
[23] = Cytotoxicity against human NCI-ADR-RES cells assessed as cell growth at 10^-7 M after 48 hrs by SRB assay; conditions: read-out: Activity
[24] = Cytotoxicity against human Caki1 cells assessed as cell growth at 10^-7 M after 48 hrs by SRB assay; conditions: CAKI-1, 48 h, read-out: Activity
[25] = system: MCF7; assay: Cytotoxicity against human MCF7 cells assessed as cell growth at 10^-7 M after 48 hrs by SRB assay; conditions: MCF7, 48 h, read-out: Activity
[26] = Cytotoxicity against human Hs 578T cells assessed as cell growth at 10^-7 M after 48 hrs by SRB assay; conditions: read-out: Activity
[27] = system: MDA-MB-468; assay: Cytotoxicity against human MDA-MB-468 cells assessed as cell growth at 10^-7 M after 48 hrs by SRB assay; conditions: MDA-MB-468, 48 h, read-out: Activity
[28] = Cytotoxicity against human RPMI8226 cells assessed as cell growth at 10^-6 M after 48 hrs by SRB assay; conditions: RPMI-8226, 48 h, read-out: Activity
[29] = system: A549; assay: Cytotoxicity against human A549 cells assessed as cell growth at 10^-6 M after 48 hrs by SRB assay; conditions: A549, 48 h, read-out: Activity
[30] = system: KM12; assay: Cytotoxicity against human KM12 cells assessed as cell growth at 10^-6 M after 48 hrs by SRB assay; conditions: KM12, 48 h, read-out: Activity
[31] = Cytotoxicity against human RPMI8226 cells assessed as cell growth at 10^-8 M after 48 hrs by SRB assay; conditions: RPMI-8226, 48 h, read-out: Activity
[32] = Cytotoxicity against human NCI-ADR-RES cells assessed as cell growth at 10^-6 M after 48 hrs by SRB assay; conditions: read-out: Activity
[33] = Cytotoxicity against human HOP62 cells assessed as cell growth at 10^-8 M after 48 hrs by SRB assay; conditions: HOP-62, 48 h, read-out: Activity
[34] = Cytotoxicity against human SNB19 cells assessed as cell growth at 10^-8 M after 48 hrs by SRB assay; conditions: SNB-19, 48 h, read-out: Activity
[35] = Cytotoxicity against human UACC257 cells assessed as cell growth at 10^-8 M after 48 hrs by SRB assay; conditions: UACC-257, 48 h, read-out: Activity
[36] = Cytotoxicity against human RXF393 cells assessed as cell growth at 10^-8 M after 48 hrs by SRB assay; conditions: RXF 393, 48 h, read-out: Activity
[37] = Cytotoxicity against human HOP62 cells assessed as cell growth at 10^-7 M after 48 hrs by SRB assay; conditions: HOP-62, 48 h, read-out: Activity
[38] = system: NCI-H226; assay: Cytotoxicity against human NCI-H226 cells assessed as cell growth at 10^-7 M after 48 hrs by SRB assay; conditions: NCI-H226, 48 h, read-out: Activity
[39] = system: 786-0; assay: Cytotoxicity against human 786-0 cells assessed as cell growth at 10^-5 M after 48 hrs by SRB assay; conditions: 786-0, 48 h, read-out: Activity
[40] = Cytotoxicity against human UO31 cells assessed as cell growth at 10^-5 M after 48 hrs by SRB assay; conditions: UO-31, 48 h, read-out: Activity
[41] = Cytotoxicity against human RPMI8226 cells assessed as cell growth at 10^-4 M after 48 hrs by SRB assay; conditions: RPMI-8226, 48 h, read-out: Activity
[42] = system: Malme-3M; assay: Cytotoxicity against human MALME-3M cells assessed as cell growth at 10^-4 M after 48 hrs by SRB assay; conditions: read-out: Activity

Compound: CCCCCCCCCC(=O)Oc1ccc(/C(=C(/C)c2ccccc2)c2ccc(OCCN3CCCC3)cc2)cc1
- growth at 0.05 µM [1]: 90%
- growth at 0.05 µM [2]: 97%
- growth at 0.05 µM [3]: 89%
- growth at 0.05 µM [4]: 94%
- growth at 0.05 µM [5]: 102%
- growth at 0.05 µM [6]: 96%
- growth at 50 µM [7]: -82%
- growth at 50 µM [8]: -89%
- growth at 50 µM [9]: -18%
- growth at 0.5 µM [10]: 76%
- growth at 0.5 µM [11]: 61%
- growth at 0.5 µM [12]: 83%
- growth at 0.005 µM [13]: 100%
- growth at 0.005 µM [14]: 97%
- growth at 0.005 µM [15]: 95%
- growth at 0.005 µM [16]: 102%
- growth at 0.005 µM [17]: 99%
- growth at 5 µM [18]: 95%
- growth at 5 µM [19]: 93%
- growth at 50 µM [20]: -74%

Compound: C/C(=C(/c1ccc(O)cc1)c1ccc(OCCN2CCCC2)cc1)c1ccccc1
- growth at 0.1 µM [21]: 101%
- growth at 0.1 µM [22]: 101%
- growth at 0.1 µM [23]: 97%
- growth at 0.1 µM [24]: 88%
- growth at 0.1 µM [25]: 44%
- growth at 0.1 µM [26]: 101%
- growth at 0.1 µM [27]: 97%
- growth at 1 µM [28]: 92%
- growth at 1 µM [29]: 106%
- growth at 1 µM [30]: 95%
- growth at 0.01 µM [31]: 103%
- growth at 1 µM [32]: 91%
- growth at 0.01 µM [33]: 90%
- growth at 0.01 µM [34]: 104%
- growth at 0.01 µM [35]: 96%
- growth at 0.01 µM [36]: 96%
- growth at 0.1 µM [37]: 95%
- growth at 0.1 µM [38]: 95%
- growth at 10 µM [39]: -57%
- growth at 10 µM [40]: -25%
- growth at 100 µM [41]: -57%
- growth at 100 µM [42]: -91%
